Reference: patent US6355799B1, “Substituted benzene compounds, process for their preparation, and herbicidal and defoliant compositions containing them” (ISK Americas Incorporated, priority 1997, dated 2002)

Tests used:
Format in all cases: in vivo
[1] = system: redroot pigweed (Amaranthus retroflexus, AMARE); assay: Pre-emerge test, greenhouse herbicide activity screening; details: rating scale 0-100, 14 days after application
Summary of the method: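 Rating: 0–100 visual injury, 14 DAA. Application: acetone, 187 l/ha, 15–1000 g ai/ha, flat-fan track sprayer with nozzle 40–45 cm above soil or canopy. Post-emerge runs used 0.25% v/v surfactant on 2–3 leaf plants.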

[2] = system: barnyardgrass (Echinochloa crus-galli, ECHCG); assay: as above; details: rating scale 0-100, 14 days after application
Summary of the method: (§1)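 Sandy loam pots; pre-emerge: sown 1 d pre-spray, surface-watered after, then bottom-watered. Post-emerge: sown 8–21 d before, 2–3 leaf stage, + 0.25% v/v NIS, bottom-watered. Acetone, 187 l/ha track spray, 15–1000 g ai/ha. 0–100 injury score, day 14.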

[3] = system: green foxtail (Setaria viridis, SETVI); assay: as above; details: rating scale 0-100, 14 days after application
Summary of the method: as §1

[4] = system: ivyleaf morningglory (Ipomoea hederacea, IPOHE); assay: as above; details: rating scale 0-100, 14 days after application
Summary of the method: as §1

[5] = system: johnsongrass (Sorghum halepense, SORHA); assay: as above; details: rating scale 0-100, 14 days after application
Summary of the method: as §1

[6] = system: lambsquarters (Chenopodium album, CHEAL); assay: as above; details: rating scale 0-100, 14 days after application
Summary of the method: as §1

[7] = system: large crabgrass (Digitaria sanguinalis, DIGSA); assay: as above; details: rating scale 0-100, 14 days after application
Summary of the method: as §1

[8] = system: sicklepod (Cassia obtusifolia, CASOB); assay: as above; details: rating scale 0-100, 14 days after application
Summary of the method: as §1

[9] = system: velvetleaf (Abutilon theophrasti, ABUTH); assay: as above; details: rating scale 0-100, 14 days after application
Summary of the method: as §1

[10] = system: field corn (Zea mays L., var. Dekalb 535, CORN); assay: Pre-emerge test, crop safety; details: rating scale 0-100, 14 days after application
Summary of the method: (§2)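 Visual ratings on a 0-100 scale (0 no damage, 100 all plants dead) were taken at 14 days after treatment. Rates of 15-1000 g ai/ha in acetone, 187 l/ha, were sprayed onto soil one day after planting (pre-emerge) or onto 2-3 leaf plants with 0.25% v/v surfactant (post-emerge).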

[11] = system: upland rice (Oryza sp., var. Tebonnet, RICE); assay: Pre-emerge test, crop safety; details: rating scale 0-100, 14 days after application
Summary of the method: as §2

[12] = system: barnyardgrass (Echinochloa crus-galli, ECHCG); assay: Post-emerge test, greenhouse herbicide activity screening; details: rating scale 0-100 (0 no damage, 100 complete death), 14 days after application
Summary of the method: (§3)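 Herbicidal damage is scored 0 (none) to 100 (complete plant death) two weeks after a simulated field spray. Rates span 15–1000 g ai/ha, delivered in acetone at 187 l/ha. For post-emergence treatments, plants have 2–3 leaves and the spray carries 0.25% v/v non-ionic surfactant.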

[13] = system: green foxtail (Setaria viridis, SETVI); assay: as above; details: rating scale 0-100 (0 no damage, 100 complete death), 14 days after application
Summary of the method: as §3

[14] = system: ivyleaf morningglory (Ipomoea hederacea, IPOHE); assay: as above; details: rating scale 0-100 (0 no damage, 100 complete death), 14 days after application
Summary of the method: as §3

[15] = system: johnsongrass (Sorghum halepense, SORHA); assay: as above; details: rating scale 0-100 (0 no damage, 100 complete death), 14 days after application
Summary of the method: as §3

[16] = system: lambsquarters (Chenopodium album, CHEAL); assay: as above; details: rating scale 0-100 (0 no damage, 100 complete death), 14 days after application
Summary of the method: as §3

[17] = system: large crabgrass (Digitaria sanguinalis, DIGSA); assay: as above; details: rating scale 0-100 (0 no damage, 100 complete death), 14 days after application
Summary of the method: as §3

[18] = system: redroot pigweed (Amaranthus retroflexus, AMARE); assay: as above; details: rating scale 0-100 (0 no damage, 100 complete death), 14 days after application
Summary of the method: as §3

[19] = system: sicklepod (Cassia obtusifolia, CASOB); assay: as above; details: rating scale 0-100 (0 no damage, 100 complete death), 14 days after application
Summary of the method: as §3

[20] = system: velvetleaf (Abutilon theophrasti, ABUTH); assay: as above; details: rating scale 0-100 (0 no damage, 100 complete death), 14 days after application
Summary of the method: as §3

[21] = system: field corn (Zea mays L., var. Dekalb 535, CORN); assay: Post-emerge test, crop safety; details: rating scale 0-100 (0 no damage, 100 complete death), 14 days after application
Summary of the method: as §1

[22] = system: upland rice (Oryza sp., var. Tebonnet, RICE); assay: Post-emerge test, crop safety; details: rating scale 0-100 (0 no damage, 100 complete death), 14 days after application
Summary of the method: as §1

C#CCOC(=O)C(Cl)Cc1c(OC)c(Cl)cc(F)c1-n1c(=O)cc(C(F)(F)F)n(C)c1=O (single isomer, unassigned) [14-20]
95: Post-emerge Herbicidal Activity, phytotoxicity rating AMARE ([18]; Rate 63 g ai/ha)
10: Post-emerge Herbicidal Activity, phytotoxicity rating SORHA ([15]; Rate 63 g ai/ha) | Post-emerge phytotoxicity rating RICE (crop damage) ([22]; Rate 250 g ai/ha)
0: Pre-emerge herbicidal activity, phytotoxicity rating ECHCG ([2]; 63 g ai/ha) | Pre-emerge herbicidal activity, phytotoxicity rating SETVI ([3]; 63 g ai/ha) | Pre-emerge herbicidal activity, phytotoxicity rating IPOHE ([4]; 63 g ai/ha) | Pre-emerge herbicidal activity, phytotoxicity rating IPOHE ([4]; 250 g ai/ha) | Pre-emerge herbicidal activity, phytotoxicity rating SORHA ([5]; 63 g ai/ha) | Pre-emerge herbicidal activity, phytotoxicity rating CHEAL ([6]; 63 g ai/ha) | Pre-emerge herbicidal activity, phytotoxicity rating DIGSA ([7]; 63 g ai/ha) | Pre-emerge herbicidal activity, phytotoxicity rating CASOB ([8]; 63 g ai/ha) | Pre-emerge herbicidal activity, phytotoxicity rating CASOB ([8]; 250 g ai/ha) | Pre-emerge herbicidal activity, phytotoxicity rating ABUTH ([9]; 63 g ai/ha) | Pre-emerge phytotoxicity rating, crop damage CORN ([10]; 63 g ai/ha) | Pre-emerge phytotoxicity rating, crop damage RICE ([11]; 63 g ai/ha) | Pre-emerge phytotoxicity rating, crop damage RICE ([11]; 250 g ai/ha) | Post-emerge Herbicidal Activity, phytotoxicity rating SETVI ([13]; Rate 63 g ai/ha) | Post-emerge Herbicidal Activity, phytotoxicity rating CASOB ([19]; Rate 63 g ai/ha) | Post-emerge phytotoxicity rating CORN (crop damage) ([21]; Rate 63 g ai/ha) | Post-emerge phytotoxicity rating RICE (crop damage) ([22]; Rate 63 g ai/ha)
100: Pre-emerge herbicidal activity, phytotoxicity rating AMARE ([1]; 250 g ai/ha) | Post-emerge Herbicidal Activity, phytotoxicity rating ECHCG ([12]; Rate 63 g ai/ha) | Post-emerge Herbicidal Activity, phytotoxicity rating ECHCG ([12]; Rate 250 g ai/ha) | Post-emerge Herbicidal Activity, phytotoxicity rating CHEAL ([16]; Rate 250 g ai/ha) | Post-emerge Herbicidal Activity, phytotoxicity rating DIGSA ([17]; Rate 63 g ai/ha) | Post-emerge Herbicidal Activity, phytotoxicity rating DIGSA ([17]; Rate 250 g ai/ha) | Post-emerge Herbicidal Activity, phytotoxicity rating AMARE ([18]; Rate 250 g ai/ha) | Post-emerge Herbicidal Activity, phytotoxicity rating ABUTH ([20]; Rate 250 g ai/ha)
90: Pre-emerge herbicidal activity, phytotoxicity rating DIGSA ([7]; 250 g ai/ha) | Pre-emerge herbicidal activity, phytotoxicity rating ABUTH ([9]; 250 g ai/ha) | Post-emerge Herbicidal Activity, phytotoxicity rating SORHA ([15]; Rate 250 g ai/ha)
80: Pre-emerge herbicidal activity, phytotoxicity rating CHEAL ([6]; 250 g ai/ha) | Post-emerge Herbicidal Activity, phytotoxicity rating CHEAL ([16]; Rate 63 g ai/ha) | Post-emerge phytotoxicity rating CORN (crop damage) ([21]; Rate 250 g ai/ha)
30: Pre-emerge herbicidal activity, phytotoxicity rating SETVI ([3]; 250 g ai/ha)
99: Post-emerge Herbicidal Activity, phytotoxicity rating ABUTH ([20]; Rate 63 g ai/ha)
50: Pre-emerge herbicidal activity, phytotoxicity rating AMARE ([1]; 63 g ai/ha) | Pre-emerge phytotoxicity rating, crop damage CORN ([10]; 250 g ai/ha) | Post-emerge Herbicidal Activity, phytotoxicity rating SETVI ([13]; Rate 250 g ai/ha) | Post-emerge Herbicidal Activity, phytotoxicity rating IPOHE ([14]; Rate 63 g ai/ha) | Post-emerge Herbicidal Activity, phytotoxicity rating CASOB ([19]; Rate 250 g ai/ha)
40: Pre-emerge herbicidal activity, phytotoxicity rating ECHCG ([2]; 250 g ai/ha)
70: Post-emerge Herbicidal Activity, phytotoxicity rating IPOHE ([14]; Rate 250 g ai/ha)
20: Pre-emerge herbicidal activity, phytotoxicity rating SORHA ([5]; 250 g ai/ha)

COc1c(Cl)cc(F)c(-n2c(=O)cc(C(F)(F)F)n(C)c2=O)c1CC(Cl)C(=O)OCCOc1ccccc1 (single isomer, unassigned) [14-27]
20: Post-emerge Herbicidal Activity, phytotoxicity rating SETVI ([13]; Rate 250 g ai/ha)
0: Pre-emerge herbicidal activity, phytotoxicity rating ECHCG ([2]; 63 g ai/ha) | Pre-emerge herbicidal activity, phytotoxicity rating ECHCG ([2]; 250 g ai/ha) | Pre-emerge herbicidal activity, phytotoxicity rating SETVI ([3]; 63 g ai/ha) | Pre-emerge herbicidal activity, phytotoxicity rating SETVI ([3]; 250 g ai/ha) | Pre-emerge herbicidal activity, phytotoxicity rating IPOHE ([4]; 63 g ai/ha) | Pre-emerge herbicidal activity, phytotoxicity rating IPOHE ([4]; 250 g ai/ha) | Pre-emerge herbicidal activity, phytotoxicity rating SORHA ([5]; 63 g ai/ha) | Pre-emerge herbicidal activity, phytotoxicity rating SORHA ([5]; 250 g ai/ha) | Pre-emerge herbicidal activity, phytotoxicity rating CHEAL ([6]; 63 g ai/ha) | Pre-emerge herbicidal activity, phytotoxicity rating DIGSA ([7]; 63 g ai/ha) | Pre-emerge herbicidal activity, phytotoxicity rating CASOB ([8]; 63 g ai/ha) | Pre-emerge herbicidal activity, phytotoxicity rating CASOB ([8]; 250 g ai/ha) | Pre-emerge herbicidal activity, phytotoxicity rating ABUTH ([9]; 63 g ai/ha) | Pre-emerge phytotoxicity rating, crop damage CORN ([10]; 63 g ai/ha) | Pre-emerge phytotoxicity rating, crop damage CORN ([10]; 250 g ai/ha) | Pre-emerge phytotoxicity rating, crop damage RICE ([11]; 63 g ai/ha) | Pre-emerge phytotoxicity rating, crop damage RICE ([11]; 250 g ai/ha) | Post-emerge Herbicidal Activity, phytotoxicity rating SETVI ([13]; Rate 63 g ai/ha) | Post-emerge Herbicidal Activity, phytotoxicity rating SORHA ([15]; Rate 63 g ai/ha) | Post-emerge phytotoxicity rating RICE (crop damage) ([22]; Rate 63 g ai/ha) | Post-emerge phytotoxicity rating RICE (crop damage) ([22]; Rate 250 g ai/ha)
50: Pre-emerge herbicidal activity, phytotoxicity rating AMARE ([1]; 63 g ai/ha) | Post-emerge Herbicidal Activity, phytotoxicity rating IPOHE ([14]; Rate 250 g ai/ha) | Post-emerge Herbicidal Activity, phytotoxicity rating AMARE ([18]; Rate 63 g ai/ha) | Post-emerge Herbicidal Activity, phytotoxicity rating CASOB ([19]; Rate 63 g ai/ha)
95: Post-emerge Herbicidal Activity, phytotoxicity rating DIGSA ([17]; Rate 250 g ai/ha)
5: Post-emerge phytotoxicity rating CORN (crop damage) ([21]; Rate 63 g ai/ha)
30: Pre-emerge herbicidal activity, phytotoxicity rating ABUTH ([9]; 250 g ai/ha) | Post-emerge Herbicidal Activity, phytotoxicity rating CASOB ([19]; Rate 250 g ai/ha)
90: Pre-emerge herbicidal activity, phytotoxicity rating CHEAL ([6]; 250 g ai/ha) | Pre-emerge herbicidal activity, phytotoxicity rating DIGSA ([7]; 250 g ai/ha) | Post-emerge Herbicidal Activity, phytotoxicity rating CHEAL ([16]; Rate 63 g ai/ha) | Post-emerge Herbicidal Activity, phytotoxicity rating AMARE ([18]; Rate 250 g ai/ha)
70: Post-emerge Herbicidal Activity, phytotoxicity rating IPOHE ([14]; Rate 63 g ai/ha) | Post-emerge Herbicidal Activity, phytotoxicity rating DIGSA ([17]; Rate 63 g ai/ha) | Post-emerge Herbicidal Activity, phytotoxicity rating ABUTH ([20]; Rate 63 g ai/ha)
100: Pre-emerge herbicidal activity, phytotoxicity rating AMARE ([1]; 250 g ai/ha) | Post-emerge Herbicidal Activity, phytotoxicity rating ECHCG ([12]; Rate 250 g ai/ha) | Post-emerge Herbicidal Activity, phytotoxicity rating CHEAL ([16]; Rate 250 g ai/ha)
80: Post-emerge Herbicidal Activity, phytotoxicity rating ABUTH ([20]; Rate 250 g ai/ha)
10: Post-emerge Herbicidal Activity, phytotoxicity rating SORHA ([15]; Rate 250 g ai/ha) | Post-emerge phytotoxicity rating CORN (crop damage) ([21]; Rate 250 g ai/ha)
99: Post-emerge Herbicidal Activity, phytotoxicity rating ECHCG ([12]; Rate 63 g ai/ha)
